Source: US20100190768A1, “NOVEL FUSED PYROLE DERIVATIVE” (Dainippon Sumitomo Pharma Co., Ltd., priority 2005, published 2010)
Read-outs that look alike come from different tables or passages of the source.

Key:
[1] = target: T1, human GRα protein (Homo sapiens, UniProt P04150); assay: Binding inhibitory assay (displacement of 3H-dexamethasone from the cytoplasm fraction of baculovirus-infected insect cells); details: for inhibition at 0.1 µM: read-out: Binding Inhibitory ratio (%) of 100 nM of test compound
T1 construct: made in house; host or cells: insect cells infected with baculovirus; cytoplasm fraction used
T1 sequence (P04150 1-777): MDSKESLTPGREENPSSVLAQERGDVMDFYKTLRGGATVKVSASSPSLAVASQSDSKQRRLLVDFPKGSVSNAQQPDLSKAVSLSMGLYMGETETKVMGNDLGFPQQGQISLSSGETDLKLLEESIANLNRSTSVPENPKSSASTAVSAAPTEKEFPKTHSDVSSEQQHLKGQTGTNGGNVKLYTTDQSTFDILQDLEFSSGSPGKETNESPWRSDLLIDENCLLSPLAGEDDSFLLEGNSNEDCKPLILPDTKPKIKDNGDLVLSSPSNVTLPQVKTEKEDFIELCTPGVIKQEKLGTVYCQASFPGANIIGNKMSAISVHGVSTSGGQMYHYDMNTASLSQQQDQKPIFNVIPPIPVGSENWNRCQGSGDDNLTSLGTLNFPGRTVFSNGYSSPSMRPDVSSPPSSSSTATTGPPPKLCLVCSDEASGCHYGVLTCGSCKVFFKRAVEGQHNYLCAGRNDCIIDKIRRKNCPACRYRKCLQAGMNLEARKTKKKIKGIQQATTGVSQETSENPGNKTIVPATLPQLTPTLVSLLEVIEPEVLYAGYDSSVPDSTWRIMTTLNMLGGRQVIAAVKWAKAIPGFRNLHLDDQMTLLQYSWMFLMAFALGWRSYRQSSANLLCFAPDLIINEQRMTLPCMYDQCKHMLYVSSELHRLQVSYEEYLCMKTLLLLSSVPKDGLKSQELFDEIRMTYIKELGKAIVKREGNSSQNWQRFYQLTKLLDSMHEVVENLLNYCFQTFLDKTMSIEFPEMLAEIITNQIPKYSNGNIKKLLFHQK
Method: Insect cells, which had been infected with baculovirus for expressing human GRα protein, were suspended in an approximately equal volume of a binding buffer (10 mM Tris-Cl, 1.5 mM EDTA, 10% glycerol, 5 mM DTT, 20 mM sodium molybdate, pH 7.6). The mixture was rapidly frozen with liquid nitrogen, and then melted at room temperature. This cycle was repeated totally twice in order to break the cell membrane. The mixture was ultracentrifuged under 100,000 g at 4° C. for one hour to give the supernatant, which was the cytoplasm fraction containing human GRα protein.
A polypropylene 96-well plate (manufactured by Costar Corporation, etc.) was placed on ice, and DMSO or a test compound (each 1 μl) was put into each well. A 10 nM ^3H-Dex solution (50 μl; tritiated dexamethasone; manufactured by Amersham) in the binding buffer, and a GR protein solution, i.e., a solution by diluting the above cytoplasm fraction with the binding buffer (50 μl) were added to each well, and the plate was lightly shaken with a plate mixer, and then left to stand at 4° C. for 16 to 20 hours (the final concentration of DMSO: 1%).
A 5% solution of dextran-coated active carbon (manufactured by Sigma) suspended in the binding buffer (50 μl) was put into each well, and the plate was lightly shaken with a plate mixer for 30 seconds. Then, the plate was centrifuged at 2500 rpm at 4° C. for 5 minutes, and the ^3H count in the supernatant (50 μl) was measured by a TopCount (manufactured by Perkin-Elmer Corporation). Each test compound was tested twice.
The binding activity was calculated as follows. The mean ^3H count in the presence of dexamethason (Dex) 10 μM was considered as NSB (non-specific binding), and the binding inhibitory ratio in each well was calculated by the following equation.
Binding Inhibitory Ratio (%)=100×{1−(cpm value of each well−NSB)/(mean cpm value of DMSO-well−NSB)}
(cpm means count per minute)
The mean binding inhibitory ratio of each well was calculated by the above equation to give a binding inhibitory ratio of each test compound.

[2] = test system: H4-III-E cells; assay: TAT (tyrosine aminotransferase) assay; assay type: cell-based; details: for activation at 10 µM / Agonistic activity of 10 μM test compound: 10 μM test compound alone, relative to maximum Dex-induced TAT activity (100%); for activation at 10 µM: read-out: Agonistic activity of 10 μM test compound; for Antagonistic activity of 10 μM test compound: 10 μM test compound together with 0.005 μM dexamethasone, inhibitory ratio against TAT activity increase by Dex
Method: H4-III-E cells, which had been continuously cultured in α-MEM medium A (supplemented with 10% inactivated FBS, 50 μM 2-mercapto-ethanol), were suspended in α-MEM medium A or α-MEM medium B (supplemented with 10% inactivated FBS, 50 μM 2-mercapto-ethanol, but without phenol red), and the cell suspension was seeded to a 96-well plate in an amount of 2×10^4 cells/100 μl/well, and the cells were cultured overnight. The supernatant in the medium was removed, and a test compound (100 μl, diluted with α-MEM medium A or α-MEM medium B) was added, and the cells were further cultured overnight. In order to measure the agonistic activity, a test compound was added alone, while in order to measure the antagonistic activity, a test compound was added simultaneously together with 0.005 μM dexamethasone and evaluated the extent of the inhibitory effect of said test compound against the TAT activity-inducing activity by dexamethasone.
The culture supernatant in the plate was removed by suction, and a cell lysate (20 μL; 1% NP-40, 0.2% Triton X-100, 0.25% DOC, 0.1% SDS, 1 mM EGTA, 150 mM NaCl, Tris (pH7.4), Protease inhibitor cocktail [2.5 mg/ml aprotinin, 2.5 mg/ml leupeptin, 2.5 mg/ml soybean trypsin inhibitor]) was added, and further thereto was added a TAT reaction reagent (150 μL; 10 N KOH, 0.125 M KH2PO4, 0.5 M α-ketoglutarate, 5 mM Pyridoxal-5′ phosphate, L-tyrosine), and the mixture was reacted at 37° C. for 15 minutes. Further, a 10N KOH (20 μL) was added thereto, and the mixture was reacted at 37° C. for 30 minutes, and the absorbance at 331 nm was measured by a microplate reader (SPECTRA MAX 250).
From the mean absorbance in the wells to which a test compound was added, the mean absorbance in the wells to which a compound and a TAT reaction solution were not added was subtracted.
Agonistic activity (%)=100×[(absorbance of the drug-treated group)−(absorbance of the group without TAT reaction reagent)]/[(absorbance of Dex-treated group)−(absorbance of the group without TAT reaction reagent)]
On the other hand, the antagonistic activity was calculated as follows.
Antagonistic activity (%)=Inhibitory ratio (%) against TAT activity increase by Dex=100−100×[(absorbance of the drug-treated group)−(absorbance of the group without a drug)]/[(absorbance of Dex-treated group)−(absorbance of the group without a drug)]
With regard to the agonistic activity and the antagonistic activity, the results of 10% or more were expressed as O, while the results of less than 10% were expressed as X.

[3] = 100 nM test compound, 3H-Dex, NSB with 10 μM dexamethasone

SMILES | inhibition at 0.1 µM [1, 3] | activation at 10 µM [2] | Antagonistic activity of 10 μM test compound [2] | inhibition at 0.1 µM [1] | Binding Inhibitory ratio (%) of test compound (1 μM) ([1]; 1 μM test compound, 3H-Dex, NSB with 10 μM dexamethasone) | Agonistic activity of 10 μM test compound [2]
O=[N+]([O-])c1ccc2c(C(O)(CN3CCCCC3)C(F)(F)F)cn(Cc3ccccc3)c2c1 (centres unmarked) [Example 1, 2-(1-Benzyl-6-nitro-1H-indol-3-yl)-1,1,1-trifluoro-3-piperidin-1-ylpropan-2-ol] | 92% | < 10% | ◯ |  |  | 
CCOC(=O)C(O)(c1cn(Cc2ccccc2)c2cc([N+](=O)[O-])ccc12)C(F)(F)F (centres unmarked) [Example 2, Ethyl 2-(1-benzyl-6-nitro-1H-indol-3-yl)-3,3,3-trifluoro-2-hydroxypropanoate] |  | < 10% | ◯ | 87% |  | 
C=CCC(O)(c1cn(Cc2ccccc2)c2cc([N+](=O)[O-])ccc12)C(F)(F)F (centres unmarked) [Example 8, 2-(1-Benzyl-6-nitro-1H-indol-3-yl)-1,1,1-trifluoropent-4-en-2-ol] | 98% | < 10% | ◯ |  |  | 
CCOC(=O)C(O)(c1cn(Cc2ccccc2)c2c([N+](=O)[O-])cccc12)C(F)(F)F (centres unmarked) [Example 21, Ethyl 2-(1-benzyl-7-nitro-1H-indol-3-yl)-3,3,3-trifluoro-2-hydroxypropanoate] |  | < 10% | ◯ |  | 79% | 
Cc1ccccc1C(=O)CC(O)(c1cn(Cc2ccccc2)c2cc([N+](=O)[O-])ccc12)C(F)(F)F (centres unmarked) [Example 68, 3-(1-Benzyl-6-nitro-1H-indol-3-yl)-4,4,4-trifluoro-3-hydroxy-1-(2-methylphenyl)-butan-1-one] | 79% | < 10% | ◯ |  |  | 
COc1ccc(C(=O)C2CCN(CC(O)(c3cn(Cc4ccccc4)c4cc([N+](=O)[O-])ccc34)C(F)(F)F)CC2)cc1 (centres unmarked) [Example 73, {1-[2-(1-Benzyl-6-nitro-1H-indol-3-yl)-3,3,3-trifluoro-2-hydroxypropyl]piperidin-4-yl}(4-methoxyphenyl)methanone] | 95% |  | ◯ |  |  | ◯
O=[N+]([O-])c1ccc2c(C(O)(CN3CCN(c4ccccc4)CC3)C(F)(F)F)cn(Cc3ccccc3)c2c1 (centres unmarked) [Example 75, 2-(1-Benzyl-6-nitro-1H-indol-3-yl)-1,1,1-trifluoro-3-(4-phenylpiperazin-1-yl)propan-2-ol] | 96% |  | ◯ |  |  | ◯
O=[N+]([O-])c1ccc2c(C(O)(CN3CCC(O)(Cc4ccccc4)CC3)C(F)(F)F)cn(Cc3ccccc3)c2c1 (centres unmarked) [Example 76, 4-Benzyl-1-[2-(1-benzyl-6-nitro-1H-indol-3-yl)-3,3,3-trifluoro-2-hydroxypropyl]-piperidin-4-ol] | 60% | < 10% | ◯ |  |  | 
O=[N+]([O-])c1ccc2c(C(O)(CN3CCC(Oc4ccc(F)cc4)CC3)C(F)(F)F)cn(Cc3ccccc3)c2c1 (centres unmarked) [Example 77, 2-(1-Benzyl-6-nitro-1H-indol-3-yl)-1,1,1-trifluoro-3-[4-(4-fluorophenoxy)-piperidin-1-yl]propan-2-ol] | 92% |  | ◯ |  |  | ◯
O=[N+]([O-])c1ccc2c(C(O)(CN3CCC(O)CC3)C(F)(F)F)cn(Cc3ccccc3)c2c1 (centres unmarked) [Example 78, 1-[2-(1-Benzyl-6-nitro-1H-indol-3-yl)-3,3,3-trifluoro-2-hydroxypropyl]piperidin-4-ol] | 81% |  | ◯ |  |  | ◯
CN(C(=O)C1CCN(CC(O)(c2cn(Cc3ccccc3)c3cc([N+](=O)[O-])ccc23)C(F)(F)F)CC1)c1ccccc1 (centres unmarked) [Example 95, 1-[2-(1-Benzyl-6-nitro-1H-indol-3-yl)-3,3,3-trifluoro-2-hydroxypropyl]-N-methyl-N-phenylpiperidine-4-carboxamide] | 59% | < 10% | ◯ |  |  | 
CC(C)(C)OC(=O)N1CCN(CC(O)(c2cn(Cc3ccccc3)c3cc([N+](=O)[O-])ccc23)C(F)(F)F)CC1 (centres unmarked) [Example 100, tert-Butyl 4-[2-(1-benzyl-6-nitro-1H-indol-3-yl)-3,3,3-trifluoro-2-hydroxypropyl]-piperazine-1-carboxylate] | 101% |  | ◯ |  |  | ◯
O=C(c1cccs1)N1CCN(CC(O)(c2cn(Cc3ccccc3)c3cc([N+](=O)[O-])ccc23)C(F)(F)F)CC1 (centres unmarked) [Example 106, 2-(1-Benzyl-6-nitro-1H-indol-3-yl)-1,1,1-trifluoro-3-[4-(2-thienylcarbonyl)-piperazin-1-yl]propan-2-ol] | 101% |  | ◯ |  |  | ◯
O=[N+]([O-])c1ccc2c(C(O)(CNCCc3ccccc3)C(F)(F)F)cn(Cc3ccccc3)c2c1 (centres unmarked) [Example 157, 2-(1-Benzyl-6-nitro-1H-indol-3-yl)-1,1,1-trifluoro-3-[(2-phenylethyl)amino]-propan-2-ol] | 50% |  |  |  |  | 
CCOC(=O)CCc1ccc(C(=O)C2CCN(CC(O)(c3cn(Cc4ccccc4)c4cc([N+](=O)[O-])ccc34)C(F)(F)F)CC2)cc1 (centres unmarked) [Example 229, Ethyl 3-[4-({1-[2-(1-benzyl-6-nitro-1H-indol-3-yl)-3,3,3-trifluoro-2-hydroxypropyl]piperidin-4-yl}carbonyl)phenyl]propanoate] | 74% |  |  |  |  | 
